In patent US8637509B2, “Azaindazoles” (GlaxoSmithKline LLC, priority 2010, dated 2014):

Biological target: T1, EZH2 (Homo sapiens, UniProt Q15910)
T1 construct: GRITS37108
Experiment: EZH2 methyltransferase SPA assay (3H-SAM, Hela nucleosomes)
Type: biochemical
Conditions: read-out: IC50
Description: • 1. […] Prepare 500 μM SAH quench solution in ddH20 with 5-10 drops of concentrated HCl to dissolve. • 5. Prepare 6 mg/ml RNA binding SPA beads (Perkin Elmer) suspended in 0.2 M Citric Acid, pH 2.2
Part C. […] Dispense 5 μL no enzyme control (assay buffer mix) to column 18 of plates. • 2. Dispense 5 μL of enzyme mix to the remaining wells in the plate. Centrifuge plate to mix and incubate at room temperature for 30 minutes. • 3. Dispense 5 μL of substrate mix to all wells to initiate the reactions. Centrifuge plate to mix and incubate at room temperature for 2 hours. • 4. […] Dispense 10 μL of 6 mg/ml RNA binding SPA beads prepared in 0.2 M citric acid, pH 2.2 using the Evolution instrument. Continuously shake the beads while adding to plates to prevent beads from settling. • 6. Seal the plates with Perkin Elmer top seals and allow the beads to equilibrate in the plate for at least 30 minutes at room temperature. • 7. […] Read plates in Microbeta after at least 5 hours incubation. Plates can be read immediately, but signal increases over time.
Reagent addition can be done manually or with automated liquid handler.
*The final DMSO concentration in this assay is 1%.
*The positive control is in column 6; negative control is in column 18.

T1 sequence (Q15910 whole entry): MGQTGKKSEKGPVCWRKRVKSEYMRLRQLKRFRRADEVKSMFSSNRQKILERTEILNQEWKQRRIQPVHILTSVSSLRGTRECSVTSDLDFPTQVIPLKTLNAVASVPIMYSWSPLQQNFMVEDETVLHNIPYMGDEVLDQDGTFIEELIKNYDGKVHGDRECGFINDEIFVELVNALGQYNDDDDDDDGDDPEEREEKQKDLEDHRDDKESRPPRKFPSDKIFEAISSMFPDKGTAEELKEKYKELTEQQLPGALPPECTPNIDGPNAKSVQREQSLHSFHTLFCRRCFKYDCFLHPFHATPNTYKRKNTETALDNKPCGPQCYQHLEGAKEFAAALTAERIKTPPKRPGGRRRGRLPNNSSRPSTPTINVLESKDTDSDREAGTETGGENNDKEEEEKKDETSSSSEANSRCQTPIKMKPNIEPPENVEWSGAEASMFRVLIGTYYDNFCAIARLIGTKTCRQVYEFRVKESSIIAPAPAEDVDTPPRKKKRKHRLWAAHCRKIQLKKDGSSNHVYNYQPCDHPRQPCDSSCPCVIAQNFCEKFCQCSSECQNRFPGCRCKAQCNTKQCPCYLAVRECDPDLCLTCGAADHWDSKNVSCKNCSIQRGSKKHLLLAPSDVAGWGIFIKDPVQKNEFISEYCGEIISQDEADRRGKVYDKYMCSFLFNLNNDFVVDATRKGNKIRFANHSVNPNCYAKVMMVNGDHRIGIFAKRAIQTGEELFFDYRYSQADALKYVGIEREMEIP
T1 sequence (O75530 whole entry partner): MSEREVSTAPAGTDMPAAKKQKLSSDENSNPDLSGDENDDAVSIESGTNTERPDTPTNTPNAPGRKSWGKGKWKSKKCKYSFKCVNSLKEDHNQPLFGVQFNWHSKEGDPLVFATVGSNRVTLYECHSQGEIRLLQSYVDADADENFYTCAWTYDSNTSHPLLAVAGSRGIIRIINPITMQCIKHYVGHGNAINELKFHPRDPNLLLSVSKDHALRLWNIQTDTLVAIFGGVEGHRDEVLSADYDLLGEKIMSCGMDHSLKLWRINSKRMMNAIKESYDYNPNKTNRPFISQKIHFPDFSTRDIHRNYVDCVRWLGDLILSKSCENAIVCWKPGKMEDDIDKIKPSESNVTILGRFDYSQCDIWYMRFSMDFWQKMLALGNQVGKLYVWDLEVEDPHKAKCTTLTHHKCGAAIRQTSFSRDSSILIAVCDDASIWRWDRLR
T1 sequence (Q15022 whole entry partner): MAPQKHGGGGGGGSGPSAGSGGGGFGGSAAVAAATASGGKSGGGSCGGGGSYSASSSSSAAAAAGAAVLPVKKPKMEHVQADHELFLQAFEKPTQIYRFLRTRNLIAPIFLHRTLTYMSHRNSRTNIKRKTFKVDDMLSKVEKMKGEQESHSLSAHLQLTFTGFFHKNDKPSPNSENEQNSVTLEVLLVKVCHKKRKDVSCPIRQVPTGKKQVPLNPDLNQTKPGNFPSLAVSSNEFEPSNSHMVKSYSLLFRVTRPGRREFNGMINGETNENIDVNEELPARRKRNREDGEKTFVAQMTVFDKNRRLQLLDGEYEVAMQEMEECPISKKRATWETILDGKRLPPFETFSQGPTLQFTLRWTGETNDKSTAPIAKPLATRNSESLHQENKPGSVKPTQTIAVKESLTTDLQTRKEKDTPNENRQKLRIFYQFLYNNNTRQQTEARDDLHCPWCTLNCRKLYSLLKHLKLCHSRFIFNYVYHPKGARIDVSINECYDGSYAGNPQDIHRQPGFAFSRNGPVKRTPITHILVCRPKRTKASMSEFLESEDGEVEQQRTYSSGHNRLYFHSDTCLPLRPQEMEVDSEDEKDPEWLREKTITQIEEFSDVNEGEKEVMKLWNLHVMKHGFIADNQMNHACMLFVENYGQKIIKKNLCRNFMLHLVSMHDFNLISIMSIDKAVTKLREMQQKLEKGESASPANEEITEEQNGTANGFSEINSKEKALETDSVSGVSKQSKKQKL

In order of falling IC50:
1. Cc1cc(C)c(CNC(=O)c2cc(NCCN(C)C)nc3c2cnn3C(C)C)c(=O)[nH]1 [Ex 56, 6-{[2-(Dimethylamino)ethyl]amino}-N-[(4,6-dimethyl-2-oxo-1,2-dihydro-3-pyridinyl)methyl]-1-(1-methylethyl)-1H-pyrazolo[3,4-b]pyridine-4-carboxamide]  2.11 µM
2. Cc1cc(C)c(CNC(=O)c2cc(C(C)C)nc3c2cnn3C(C)C)c(=O)[nH]1 [Ex 37, N-[(4,6-Dimethyl-2-oxo-1,2-dihydro-3-pyridinyl)methyl]-1,6-bis(1-methylethyl)-1H-pyrazolo[3,4-b]pyridine-4-carboxamide]  1.1 µM
3. Cc1cc(C)c(CNC(=O)c2cc(NCCO)nc3c2cnn3C(C)C)c(=O)[nH]1 [Ex 57, N-[(4,6-Dimethyl-2-oxo-1,2-dihydro-3-pyridinyl)methyl]-6-[(2-hydroxyethyl)amino]-1-(1-methylethyl)-1H-pyrazolo[3,4-b]pyridine-4-carboxamide]  0.784 µM
4. Cc1cc(C)c(CNC(=O)c2cc(NCc3ccccc3)nc3c2cnn3C(C)C)c(=O)[nH]1 [Ex 35, N-[(4,6-Dimethyl-2-oxo-1,2-dihydro-3-pyridinyl)methyl]-1-(1-methylethyl)-6-[(phenylmethyl)amino]-1H-pyrazolo[3,4-b]pyridine-4-carboxamide]  0.673 µM
5. Cc1cc(C)c(CNC(=O)c2cc(-c3ccco3)nc3c2cnn3C(C)C)c(=O)[nH]1 [Ex 62, N-[(4,6-Dimethyl-2-oxo-1,2-dihydro-3-pyridinyl)methyl]-6-(2-furanyl)-1-(1-methylethyl)-1H-pyrazolo[3,4-b]pyridine-4-carboxamide]  0.581 µM
6. Cc1cc(C)c(CNC(=O)c2cc(NC3CCOCC3)nc3c2cnn3C(C)C)c(=O)[nH]1 [Ex 54, N-[(4,6-Dimethyl-2-oxo-1,2-dihydro-3-pyridinyl)methyl]-1-(1-methylethyl)-6-(tetrahydro-2H-pyran-4-ylamino)-1H-pyrazolo[3,4-b]pyridine-4-carboxamide]  0.514 µM
7. Cc1cc(C)c(CNC(=O)c2cc(NC3CCNCC3)nc3c2cnn3C(C)C)c(=O)[nH]1 [Ex 53, N-[(4,6-Dimethyl-2-oxo-1,2-dihydro-3-pyridinyl)methyl]-1-(1-methylethyl)-6-(4-piperidinylamino)-1H-pyrazolo[3,4-b]pyridine-4-carboxamide]  0.436 µM
8. Cc1cc(C)c(CNC(=O)c2cc(-c3ccccc3)nc3c2cnn3C(C)C)c(=O)[nH]1 [Ex 38, N-[(4,6-Dimethyl-2-oxo-1,2-dihydro-3-pyridinyl)methyl]-1-(1-methylethyl)-6-phenyl-1H-pyrazolo[3,4-b]pyridine-4-carboxamide]  0.392 µM
9. Cc1cc(C)c(CNC(=O)c2cc(NCc3ccncc3)nc3c2cnn3C(C)C)c(=O)[nH]1 [Ex 55, N-[(4,6-Dimethyl-2-oxo-1,2-dihydro-3-pyridinyl)methyl]-1-(1-methylethyl)-6-[(4-pyridinylmethyl)amino]-1H-pyrazolo[3,4-b]pyridine-4-carboxamide]  0.26 µM
10. Cc1cc(C)c(CNC(=O)c2cc(-c3cccc(N)c3)nc3c2cnn3C(C)C)c(=O)[nH]1 [Ex 45, 6-(3-aminophenyl)-N-[(4,6-dimethyl-2-oxo-1,2-dihydro-3-pyridinyl)methyl]-1-(1-methylethyl)-1H-pyrazolo[3,4-b]pyridine-4-carboxamide]  0.248 µM
11. Cc1cc(C)c(CNC(=O)c2cc(-c3ccc(N)cc3)nc3c2cnn3C(C)C)c(=O)[nH]1 [Ex 43, 6-(4-Aminophenyl)-N-[(4,6-dimethyl-2-oxo-1,2-dihydro-3-pyridinyl)methyl]-1-(1-methylethyl)-1H-pyrazolo[3,4-b]pyridine-4-carboxamide]  0.204 µM
12. Cc1cc(C)c(CNC(=O)c2cc(-c3c[nH]c(=O)[nH]c3=O)nc3c2cnn3C(C)C)c(=O)[nH]1 [Ex 48, N-[(4,6-Dimethyl-2-oxo-1,2-dihydro-3-pyridinyl)methyl]-6-(2,4-dioxo-1,2,3,4-tetrahydro-5-pyrimidinyl)-1-(1-methylethyl)-1H-pyrazolo[3,4-b]pyridine-4-carboxamide]  0.198 µM
13. Cc1cc(C)c(CNC(=O)c2cc(-c3ccc(N)nc3)nc3c2cnn3C(C)C)c(=O)[nH]1 [Ex 60, 6-(6-Amino-3-pyridinyl)-N-[(4,6-dimethyl-2-oxo-1,2-dihydro-3-pyridinyl)methyl]-1-(1-methylethyl)-1H-pyrazolo[3,4-b]pyridine-4-carboxamide]  0.198 µM
14. Cc1cc(C)c(CNC(=O)c2cc(-c3ccc(NS(C)(=O)=O)cc3)nc3c2cnn3C(C)C)c(=O)[nH]1 [Ex 51, N-[(4,6-Dimethyl-2-oxo-1,2-dihydro-3-pyridinyl)methyl]-1-(1-methylethyl)-6-{4-[(methylsulfonyl]amino]phenyl}-1H-pyrazolo[3,4-b]pyridine-4-carboxamide]  0.161 µM
15. COc1cc(-c2cc(C(=O)NCc3c(C)cc(C)[nH]c3=O)c3cnn(C(C)C)c3n2)ccn1 [Ex 59, N-[(4,6-Dimethyl-2-oxo-1,2-dihydro-3-pyridinyl)methyl]-1-(1-methylethyl)-6-[2-(methyloxy)-4-pyridinyl]-1H-pyrazolo[3,4-b]pyridine-4-carboxamide]  0.155 µM
16. CNC(=O)c1ccc(-c2cc(C(=O)NCc3c(C)cc(C)[nH]c3=O)c3cnn(C(C)C)c3n2)cc1 [Ex 46, N-[(4,6-Dimethyl-2-oxo-1,2-dihydro-3-pyridinyl)methyl]-6-{4-[(methylamino)carbonyl]phenyl}-1-(1-methylethyl)-1H-pyrazolo[3,4-b]pyridine-4-carboxamide]  0.128 µM
17. Cc1cc(C)c(CNC(=O)c2cc(-c3ccnc(N)c3)nc3c2cnn3C(C)C)c(=O)[nH]1 [Ex 49, 6-(2-Amino-4-pyridinyl)-N-[(4,6-dimethyl-2-oxo-1,2-dihydro-3-pyridinyl)methyl]-1-(1-methylethyl)-1H-pyrazolo[3,4-b]pyridine-4-carboxamide]  0.115 µM
18. Cc1cc(C)c(CNC(=O)c2cc(-c3cncc(S(C)(=O)=O)c3)nc3c2cnn3C(C)C)c(=O)[nH]1 [Ex 61, N-[(4,6-Dimethyl-2-oxo-1,2-dihydro-3-pyridinyl)methyl]-1-(1-methylethyl)-6-[5-(methylsulfonyl)-3-pyridinyl]-1H-pyrazolo[3,4-b]pyridine-4-carboxamide]  0.112 µM
19. CNC(=O)c1ccc(-c2cc(C(=O)NCc3c(C)cc(C)[nH]c3=O)c3cnn(C(C)C)c3n2)cn1 [Ex 63, N-[(4,6-Dimethyl-2-oxo-1,2-dihydro-3-pyridinyl)methyl]-6-[6-[(methylamino)carbonyl]-3-pyridinyl]-1-(1-methylethyl)-1H-pyrazolo[3,4-b]pyridine-4-carboxamide]  0.096 µM
20. CC(=O)Nc1cccc(-c2cc(C(=O)NCc3c(C)cc(C)[nH]c3=O)c3cnn(C(C)C)c3n2)c1 [Ex 47, 6-[3-(Acetylamino)phenyl]-N-[(4,6-dimethyl-2-oxo-1,2-dihydro-3-pyridinyl)methyl]-1-(1-methylethyl)-1H-pyrazolo[3,4-b]pyridine-4-carboxamide]  0.088 µM
21. Cc1cc(C)c(CNC(=O)c2cc(-c3ccc(N(C)C)nc3)nc3c2cnn3C(C)C)c(=O)[nH]1 [Ex 41, 6-[6-(Dimethylamino)-3-pyridinyl]-N-[(4,6-dimethyl-2-oxo-1,2-dihydro-3-pyridinyl)methyl]-1-(1-methylethyl)-1H-pyrazolo[3,4-b]pyridine-4-carboxamide]  0.086 µM
22. Cc1cc(C)c(CNC(=O)c2cc(-c3ccc(S(N)(=O)=O)cc3)nc3c2cnn3C(C)C)c(=O)[nH]1 [Ex 50, 6-[4-(Aminosulfonyl)phenyl]-N-[(4,6-dimethyl-2-oxo-1,2-dihydro-3-pyridinyl)methyl]-1-(1-methylethyl)-1H-pyrazolo[3,4-b]pyridine-4-carboxamide]  0.081 µM
23. Cc1cc(C)c(CNC(=O)c2cc(-c3ccnc(N4CCOCC4)c3)nc3c2cnn3C(C)C)c(=O)[nH]1 [Ex 66, N-[(4,6-Dimethyl-2-oxo-1,2-dihydro-3-pyridinyl)methyl]-1-(1-methylethyl)-6-[2-(4-morpholinyl)-4-pyridinyl]-1H-pyrazolo[3,4-b]pyridine-4-carboxamide]  0.081 µM
24. COc1ncc(-c2cc(C(=O)NCc3c(C)cc(C)[nH]c3=O)c3cnn(C(C)C)c3n2)cc1NS(=O)(=O)C1CC1 [Ex 64, 6-[5-[(Cyclopropylsulfonyl)amino]-6-(methyloxy)-3-pyridinyl]-N-[(4,6-dimethyl-2-oxo-1,2-dihydro-3-pyridinyl)methyl]-1-(1-methylethyl)-1H-pyrazolo[3,4-b]pyridine-4-carboxamide]  0.079 µM
25. COc1cncc(-c2cc(C(=O)NCc3c(C)cc(C)[nH]c3=O)c3cnn(C(C)C)c3n2)c1 [Ex 58, N-[(4,6-Dimethyl-2-oxo-1,2-dihydro-3-pyridinyl)methyl]-1-(1-methylethyl)-6-[5-(methyloxy)-3-pyridinyl]-1H-pyrazolo[3,4-b]pyridine-4-carboxamide]  0.078 µM
26. CC(=O)Nc1ccc(-c2cc(C(=O)NCc3c(C)cc(C)[nH]c3=O)c3cnn(C(C)C)c3n2)cc1 [Ex 44, 6-[4-(acetylamino)phenyl]-N-[(4,6-dimethyl-2-oxo-1,2-dihydro-3-pyridinyl)methyl]-1-(1-methylethyl)-1H-pyrazolo[3,4-b]pyridine-4-carboxamide]  0.074 µM
27. Cc1cc(C)c(CNC(=O)c2cc(C#Cc3ccncc3)nc3c2cnn3C(C)C)c(=O)[nH]1 [Ex 33, N-[(4,6-Dimethyl-2-oxo-1,2-dihydro-3-pyridinyl)methyl]-1-(1-methylethyl)-6-(4-pyridinylethynyl)-1H-pyrazolo[3,4-b]pyridine-4-carboxamide]  0.07 µM
28. CNS(=O)(=O)c1ccc(-c2cc(C(=O)NCc3c(C)cc(C)[nH]c3=O)c3cnn(C(C)C)c3n2)cc1 [Ex 42, N-[(4,6-Dimethyl-2-oxo-1,2-dihydro-3-pyridinyl)methyl]-6-{4-[(methylamino)sulfonyl]phenyl}-1-(1-methylethyl)-1H-pyrazolo[3,4-b]pyridine-4-carboxamide]  0.056 µM
29. Cc1cc(C)c(CNC(=O)c2cc(-c3cncc(NS(=O)(=O)c4ccccc4)c3)nc3c2cnn3C(C)C)c(=O)[nH]1 [Ex 65, N-[(4,6-Dimethyl-2-oxo-1,2-dihydro-3-pyridinyl)methyl]-1-(1-methylethyl)-6-{5-[(phenylsulfonyl)amino]-3-pyridinyl}-1H-pyrazolo[3,4-b]pyridine-4-carboxamide]  0.055 µM
